Measurements as given in patent US10772327B2, “Herbicide composition containing isopropylamine caprylate” (HUNAN AGRICULTURAL BIOTECHNOLOGY RESEARCH INSTITUTE, priority 2018, dated 2020).

Key:
Experiment in all cases: Indoor test for herbicidal activity, stem and leaf spray on potted weeds
Conditions in all cases: Day 7, fresh weight of above-ground portion
Myosoton aquaticum = assay type: in vivo
Poa annua = assay type: in vivo
Beckmannia syzigachne = assay type: in vivo
Eleocharis yokoscensis = assay type: in vivo
Xanthium sibiricum = assay type: in vivo
Ludwigia prostrata = tested on: Ludwigia prostrata
Stellaria media = assay type: in vivo
Veronica persica = assay type: in vivo
Cardamine hirsuta = assay type: in vivo
Conyza candesis = assay type: in vivo
Echinochloa crusgalli = tested on: Echinochloa crusgalli
[1] = listed as isopropylamine caprylate
[2] = listed as glyphosate isopropylamine
[3] = listed as glyphosate isopropylamine salt

SMILES: CCCCCCCC(=O)O [Isopropylamine caprylate, isopropylamine caprylate]
- ED50 (95% confidence interval of ED50) (Myosoton aquaticum): 0.18 (0.04-0.25) mg/mL
- ED90 (95% confidence interval of ED90) (Myosoton aquaticum): 16.47 (8.35-20.23) mg/mL
- ED50 (95% confidence interval of ED50) (Poa annua): 3.07 (2.66-10.48) mg/mL
- ED90 (95% confidence interval of ED90) (Poa annua): 28.65 (22.83-40.82) mg/mL
- ED50 (95% confidence interval of ED50) (Beckmannia syzigachne): 3.07 (1.66-8.48) mg/mL
- ED90 (95% confidence interval of ED90) (Beckmannia syzigachne): 30.65 (24.12-44.50) mg/mL
- ED50 (95% confidence interval of ED50) (Eleocharis yokoscensis): 3.23 (2.00-9.55) mg/mL
- ED90 (95% confidence interval of ED90) (Eleocharis yokoscensis): 24.11 (18.74-40.82) mg/mL
- ED50 (95% confidence interval of ED50) (Xanthium sibiricum): 0.64 (0.22-1.03) mg/mL
- ED90 (95% confidence interval of ED90) (Xanthium sibiricum): 19.11 (10.80-31.14) mg/mL
- ED50 (95% confidence interval of ED50) (Ludwigia prostrata): 0.52 (0.35-0.61) mg/mL
- ED90 (95% confidence interval of ED90) (Ludwigia prostrata): 13.21 (9.17-18.31) mg/mL
- ED50 (95% confidence interval of ED50) (Ludwigia prostrata; [1]): 0.52 mg/mL
- ED50 (95% confidence interval of ED50) (Stellaria media): 0.80 (0.47-1.77) mg/mL
- ED90 (95% confidence interval of ED90) (Stellaria media): 16.69 (7.91-26.98) mg/mL
- ED50 (95% confidence interval of ED50) (Veronica persica): 0.78 (0.28-2.35) mg/mL
- ED90 (95% confidence interval of ED90) (Veronica persica): 9.16 (5.09-22.65) mg/mL
- ED50 (95% confidence interval of ED50) (Cardamine hirsuta): 0.90 (0.11-2.46) mg/mL
- ED90 (95% confidence interval of ED90) (Cardamine hirsuta): 18.36 (10.74-35.88) mg/mL
- ED50 (95% confidence interval of ED50) (Conyza candesis): 0.74 (0.25-1.05) mg/mL
- ED90 (95% confidence interval of ED90) (Conyza candesis): 15.54 (8.74-20.93) mg/mL
- ED50 (95% confidence interval of ED50) (Echinochloa crusgalli): 4.07 (2.66-10.48) mg/mL
- ED90 (95% confidence interval of ED90) (Echinochloa crusgalli): 28.65 (22.83-40.82) mg/mL
- ED50 (95% confidence interval of ED50) (Echinochloa crusgalli; [1]): 4.07 mg/mL

SMILES: CC(C)N.O=C(O)CNCP(=O)(O)O [Glyphosate isopropylamine]
- ED50 (95% confidence interval of ED50) (Ludwigia prostrata): 46.79 (41.87-52.27) mg/mL
- ED90 (95% confidence interval of ED90) (Ludwigia prostrata): 321.75 (271.72-380.99) mg/mL
- ED50 (95% confidence interval of ED50) (Ludwigia prostrata; [2]): 46.79 mg/mL
- ED50 (95% confidence interval of ED50) (Ludwigia prostrata; [3]): 46.79 mg/mL
- ED50 (95% confidence interval of ED50) (Echinochloa crusgalli): 52.18 (40.13-65.02) mg/mL
- ED90 (95% confidence interval of ED90) (Echinochloa crusgalli): 384.59 (360.35-420.77) mg/mL
- ED50 (95% confidence interval of ED50) (Echinochloa crusgalli; [2]): 52.18 mg/mL
- ED50 (95% confidence interval of ED50) (Echinochloa crusgalli; [3]): 52.18 mg/mL

SMILES: CCCCCCCC(=O)O [Caprylic acid]
- ED50 (95% confidence interval of ED50) (Ludwigia prostrata): 12.52 (10.66-14.43) mg/mL
- ED90 (95% confidence interval of ED90) (Ludwigia prostrata): 96.04 (85.15-108.33) mg/mL
- ED50 (95% confidence interval of ED50) (Ludwigia prostrata; listed as caprylic acid): 12.52 mg/mL
- ED50 (95% confidence interval of ED50) (Echinochloa crusgalli): 14.07 (13.66-14.48) mg/mL
- ED90 (95% confidence interval of ED90) (Echinochloa crusgalli): 108.65 (92.83-124.80) mg/mL
- ED50 (95% confidence interval of ED50) (Echinochloa crusgalli; listed as caprylic acid): 14.07 mg/mL
